# Like-named read-outs stand apart in the source and are kept apart here. Marks after values point to notes of the source that are not given here.
# Experiments:
# [1] = Repeat dose oral toxicity and toxicokinetics study in Sprague Dawley rats
# Experimental: The protocol was amended to add additional TK male animals in Group 6 for Day 1 collection of TK samples at 875 mg/kg.
# Blood samples were collected from 3 subsets of 3 animals/sex on Day 1 and Day 28 at predose, 0.25, 0.5, 1, 2, 4, 8 and 24 hours (hr) post-dose for groups 2 to 6 and from one subset of 3 animals/sex at 0.25 hr post-dose for the vehicle group (group 1). […] Non-compartmental analysis (NCA) of plasma concentration data was conducted using Phoenix® WinNonlin®, version 8.0.
# [2] = Phase 1 Multiple Ascending Dose (MAD) study Part 1, plasma pharmacokinetics
# Experimental: All Part 1 cohorts will be dosed every 12 hours with food for 5 days.
# During the treatment period (Day 1 through Day 5), participants will be administered their assigned study medication BID, every 12 h ± 0.25 h (with approximately 240 mL of non-carbonated water), 30 minutes after the start of consumption of their standardised breakfast or dinner (12 h apart). A standardised lunch will be served ≥ 4 h post breakfast and ≥ 4 h prior to dinner. An evening snack will be served ≥ 3 h following evening study medication administration. No additional fluids will be allowed during the 1 h pre- and post-doses. On Day 6, subjects will replicate mealtimes as scheduled on Day 1-5.
# In Part 1, blood samples (4 mL each) for PK will be collected for Cohorts 1, 2, 3, 4, and 6 at specified times (hours) at each as follows: • Day 1 and Day 5: 0 (pre-dose), 0.5, 1, 1.5, 2, 2.5, 3, 3.5, 4, 6, 8, 12 (pre-dose), 13, 14, 15, 16, 18 h • Day 2, Day 3 and Day 4: 0 (pre-morning-dose) and 12 h (pre-evening-dose) • Day 6: 12, 18, 24 and 36 h post-last dose • Day 7: 48 h (post-last dose)
# Pharmacokinetics for Day 1 to 3 in Part 2 (fed state) will be compared to PK for Day 1 to Day 3 in Part 2 (fasted state). Plasma PK parameters (non-compartmental or compartmental analysis as appropriate) will include, but are not limited to: • Following single dose: Tmax, tlag, Cmax, AUC0-4, AUC0-last, t½, AUC0-inf, lambda z, %AUCext, CL/F, Vz/F, Cmax/D, AUC0-last/D, AUC0-inf/D and MRT (D is dose) • After repeated doses: Ctrough, Ctrough/D • Following repeated doses on last day: Tmax, Cmax, Cavg, tlag, t½, AUC0-4, AUC0-last, AUC0-inf, lambda z, %AUCext, CLss/F, Vzss/F, MRT, PTF, Rac(AUC), Rac(Cmax), Cmax/D, AUClast/D, AUC0-inf/D and Rac (accumulation ratio)
# All cohorts (n=6 each) were dosed every 12 hours with food for 5 days at either 100, 250, 500, or 750 mg BID. […] Following processing, the samples were analyzed by HPLC on a Phenomenex Luna PFP(2), 3 µm, 50 x 2.0 mm column, and the eluates were monitored by an API4000 MS/MS detector in positive MRM mode. The data were acquired and processed by the data acquisition system Analyst® (Sciex).
# [3] = Single dose, double-blinded, cross-over clinical trial of 801 mg LYT-100 vs pirfenidone, safety and pharmacokinetics; conditions: for Metabolite/Parent Ratio, AUC0-∞, Mean / Metabolite/Parent Ratio, Cmax, Mean: MW-corrected; for metabolite as percent of parent in terms of AUC: single 801 mg dose; for Cmax / tmax: 5-hydroxymethyl metabolite after 801 mg of parent (LYT-110 after LYT-100, LYT-111 after pirfenidone); for Cmax / AUC0-t / AUC(inf) / Kel / t½: Mean (CV%); for tmax: Median (Range); for AUC0-t / AUC(inf) / Kel / t½: 5-hydroxymethyl metabolite after 801 mg of parent; for AUC(inf) / Kel / t½: n=23 LYT-110, n=19 LYT-111
# Text: (§1) Following screening, eligible healthy volunteer subjects were admitted to a single clinical study site and were randomized to 1 of 2 treatment sequences. […] In each period, a standardized breakfast was provided to subjects prior to administration of study drug (to compare the PK profiles in the clinically relevant fed state) and plasma samples were collected over a 48-hour period after dosing for evaluation of PK. Dosing between the 2 periods was separated by a minimum of 7 days. Subjects completed the study upon completion of the 48-hour post-dose assessments following dosing period 2.
# (§2) All capsules were identical in size, shape, and external color.
# [4] = human, in vivo, 48 h
# Text: as §1, §2
# [5] = cited from earlier work
# [6] = cited from earlier work; remark: listed apart in the source
# [7] = Day 1, Female, deuterated analyte / non-deuterated counterpart
# [8] = across dose groups 100, 250, 500, 750 mg BID (FIG. 20)
# [9] = across dose groups 100, 250, 500, 750, 1000 mg BID (FIG. 26)
# [10] = after 801 mg LYT-100 (parent LYT-100)
# [11] = after 801 mg pirfenidone (parent LYT-101)
# [12] = Lancaster et al. 2017, frequencies as high as
# [13] = patients aged at least 80 years
# [14] = single-center retrospective study of 351 patients
structure (smiles),measurement,setting,value
"[2H]C([2H])([2H])c1ccc(=O)n(-c2ccc(O)cc2)c1 [LYT-103, d3-4′-hydroxy-pirfenidone]","similarity in exposure (AUC ratio), Group 4 (LYT-100 at 750 mg/kg) / Group 5 (SD-559 at 750 mg/kg)",[1]; [7],21.77
same,"similarity in exposure (AUC ratio), Group 4 (LYT-100 at 750 mg/kg) / Group 5 (SD-559 at 750 mg/kg)","[1]; Day 1, Male",34.51
same,"similarity in exposure (AUC ratio), Group 4 (LYT-100 at 750 mg/kg) / Group 5 (SD-559 at 750 mg/kg)","[1]; Day 28, Female",38.04
same,average ratio to the parent (M/P) by AUC,"[2]; Cohort 4, 750 mg BID LYT-100",0.0017 (0.0012-0.0022)
same,average ratio to the parent (M/P) by AUC,"[2]; Cohort 6, 1000 mg BID LYT-100",0.0037 (0.0030-0.0058)
same,AUC accumulation ratio (AUC96-108/AUC0-12),[2]; [8],~ 1
same,AUC accumulation ratio (AUC96-108/AUC0-12),[2]; [9],~ 1
same,"Metabolite/Parent Ratio, AUC0-∞, Maximum",[3]; [10],0.2%
same,"Metabolite/Parent Ratio, AUC0-∞, Median",[3]; [10],0.1%
same,"Metabolite/Parent Ratio, AUC0-∞, Minimum",[3]; [10],0.1%
same,"Metabolite/Parent Ratio, Cmax, Maximum",[3]; [10],0.2%
same,"Metabolite/Parent Ratio, Cmax, Median",[3]; [10],0.1%
same,"Metabolite/Parent Ratio, Cmax, Minimum",[3]; [10],0.1%
same,"Metabolite/Parent Ratio, AUC0-∞, Mean",[3]; [10],0.1%
same,"Metabolite/Parent Ratio, Cmax, Mean",[3]; [10],0.1%
same,quantifiability of metabolite in human plasma,[3]; after LYT-100 801 mg,not quantifiable
"Cc1ccc(=O)n(-c2ccc(O)cc2)c1 [LYT-104, 4′-hydroxy-pirfenidone]","Metabolite/Parent Ratio, Cmax, Maximum",[3]; [11],0.1%
same,"Metabolite/Parent Ratio, Cmax, Median",[3]; [11],0.0%
same,"Metabolite/Parent Ratio, Cmax, Minimum",[3]; [11],0.0%
same,"Metabolite/Parent Ratio, Cmax, Mean",[3]; [11],0.0%
same,metabolite as percent of parent in terms of AUC,[3],less than 2%
"[2H]C([2H])(O)c1ccc(=O)n(-c2ccccc2)c1 [LYT-110, d2-5-hydroxymethyl-pirfenidone]",Cmax in rat relative to human,"[1]; 750 mg/kg LYT-100, Day 1, male rat vs human 801 mg",~1825 fold
same,exposure (AUC) in rat relative to human,"[1]; 750 mg/kg LYT-100, Day 1, male rats vs human 801 mg",about 1250 fold
same,"similarity in exposure (AUC ratio), Group 4 (LYT-100 at 750 mg/kg) / Group 5 (SD-559 at 750 mg/kg)",[1]; [7],2.50
same,"similarity in exposure (AUC ratio), Group 4 (LYT-100 at 750 mg/kg) / Group 5 (SD-559 at 750 mg/kg)","[1]; Day 1, Male",2.22
same,"similarity in exposure (AUC ratio), Group 4 (LYT-100 at 750 mg/kg) / Group 5 (SD-559 at 750 mg/kg)","[1]; Day 28, Female",2.59
same,"similarity in exposure (AUC ratio), Group 4 (LYT-100 at 750 mg/kg) / Group 5 (SD-559 at 750 mg/kg)","[1]; Day 28, Male",2.54
same,exposure and Cmax vs. non-deuterated corresponding metabolite (SD-788),"[1]; SD-560 750 mg/kg vs SD-559 750 mg/kg, all days, both genders",almost twice
same,exposure in rats relative to humans,[1]; male rat after 28 days of daily dosing vs human,~1600 fold
same,average ratio to the parent (M/P) by AUC,"[2]; Cohort 4, 750 mg BID LYT-100",0.0025 (0.0020-0.0029)
same,average ratio to the parent (M/P) by AUC,"[2]; Cohort 6, 1000 mg BID LYT-100",0.0028 (0.0018-0.0038)
same,AUC accumulation ratio (AUC96-108/AUC0-12),[2]; [8],~ 1
same,AUC accumulation ratio (AUC96-108/AUC0-12),[2]; [9],~ 1
same,Cmax,[3],20.6 (30%) ng/mL
same,tmax,[3],2.50 (1.00 - 4.00) hr
same,AUC0-t,[3],111 (32%) hr*ng/mL
same,AUC(inf),[3],124 (32%) ^a hr*ng/mL
same,Kel,[3],0.294 (44%) ^a ⅟hr
same,t½,[3],2.76 (38%) ^a hr
same,"Metabolite/Parent Ratio, AUC0-∞, Maximum",[3]; [10],0.4%
same,"Metabolite/Parent Ratio, AUC0-∞, Median",[3]; [10],0.2%
same,"Metabolite/Parent Ratio, AUC0-∞, Minimum",[3]; [10],0.1%
same,"Metabolite/Parent Ratio, Cmax, Maximum",[3]; [10],0.4%
same,"Metabolite/Parent Ratio, Cmax, Median",[3]; [10],0.2%
same,"Metabolite/Parent Ratio, Cmax, Minimum",[3]; [10],0.1%
same,"Metabolite/Parent Ratio, AUC0-∞, Mean",[3]; [10],0.2%
same,"Metabolite/Parent Ratio, Cmax, Mean",[3]; [10],0.2%
"O=c1ccc(CO)cn1-c1ccccc1 [LYT-111, 5-hydroxymethyl-pirfenidone]",Cmax,[3],17.1 (36%) ng/mL
same,tmax,[3],2.50 (1.50 - 4.00) hr
same,AUC0-t,[3],75.8 (42%) hr*ng/mL
same,AUC(inf),[3],89.7 (41%) ^b hr*ng/mL
same,Kel,[3],0.367 (29%) ^b ⅟hr
same,t½,[3],2.04 (29%) ^b hr
same,"Metabolite/Parent Ratio, AUC0-∞, Maximum",[3]; [11],0.4%
same,"Metabolite/Parent Ratio, AUC0-∞, Median",[3]; [11],0.2%
same,"Metabolite/Parent Ratio, AUC0-∞, Minimum",[3]; [11],0.1%
same,"Metabolite/Parent Ratio, Cmax, Maximum",[3]; [11],0.4%
same,"Metabolite/Parent Ratio, Cmax, Median",[3]; [11],0.2%
same,"Metabolite/Parent Ratio, Cmax, Minimum",[3]; [11],0.1%
same,"Metabolite/Parent Ratio, AUC0-∞, Mean",[3]; [11],0.2%
same,"Metabolite/Parent Ratio, Cmax, Mean",[3]; [11],0.2%
same,metabolite as percent of parent in terms of AUC,[3],less than 2%
"Cc1ccc(=O)n(-c2ccccc2)c1 [pirfenidone, 5-methyl-1-phenyl-1H-pyridin-2-one]",tolerability of single doses,[4],well tolerated
same,"AUC, % Change Fed vs Fasted",[5]; Pirfenidone @ 800 mg,-15%
same,"Cmax, % Change Fed vs Fasted",[5]; Pirfenidone @ 800 mg,-49%
same,"Tmax, % Change Fed vs Fasted",[5]; Pirfenidone @ 800 mg,+500%
same,"increase in Tmax, fed vs fasted",[5]; pirfenidone,500%
same,"diarrhea, TEAE frequency",[6]; [12],≤ 27.6 per 100PEY
same,"fatigue, TEAE frequency",[6]; [12],≤ 52.4 per 100PEY
same,"nausea, TEAE frequency",[6]; [12],≤ 62.1 per 100 PEY
same,adverse drug reactions leading to permanent treatment discontinuation,"[6]; PASSPORT study, Cottin et al. 2018",28.7%
same,patients who had an adverse event,"[6]; compassionate use program, Raghu & Thickett 2013",44%
same,half-life,[6]; in humans,about 2.5 hours
same,ADR leading to discontinuation,[6]; patients aged <65 years,7.5%
same,ADR leading to discontinuation,[6]; [13],20.9%
same,ADR leading to dose modification/interruption,[6]; [13],32.7%
same,ADR leading to dose modification/interruption,[6]; patients aged less than 65 years,18.0%
same,elevations of AST and ALT levels to >3× ULN,[6]; phase III trials,3.2%
same,loss of appetite,[6]; [14],17%
same,nausea/vomiting,[6]; [14],15%
same,reported AEs that were GI-related,[6]; [14],75%

# From patent US20230255946A1 (Pure Tech LYT 100, Inc., priority 2020, published 2023)
